Laboratory results: US20240269139A1, “COMPOUNDS FOR TARGETED PROTEIN DEGRADATION OF KINASES” (DANA-FARBER CANCER INSTITUTE, INC., priority 2020, published 2024)
Like-named read-outs stand apart in the source and are kept apart here.

Columns and labels:
[1] = target: T1, protein kinases (human kinome) (Homo sapiens, UniProt Q4G0N4); assay type: cell-based; conditions: Accession Q4GON4, direction down
T1 sequence (Q4G0N4 63-442): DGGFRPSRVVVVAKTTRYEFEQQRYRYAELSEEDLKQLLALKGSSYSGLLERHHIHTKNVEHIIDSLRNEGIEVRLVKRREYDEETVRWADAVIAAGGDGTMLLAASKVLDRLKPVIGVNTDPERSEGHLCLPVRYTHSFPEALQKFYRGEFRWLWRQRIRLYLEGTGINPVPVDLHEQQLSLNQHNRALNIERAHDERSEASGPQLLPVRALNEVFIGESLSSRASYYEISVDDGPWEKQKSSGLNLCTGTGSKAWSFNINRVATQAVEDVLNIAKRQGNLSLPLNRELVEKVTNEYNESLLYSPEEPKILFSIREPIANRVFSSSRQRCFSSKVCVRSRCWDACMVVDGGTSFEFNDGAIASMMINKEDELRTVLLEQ

[2] = target: T2, extended human kinome (kinase-like proteins) (Homo sapiens, UniProt Q7L8L6); assay: Whole cell quantitative proteomics: extended kinome hits; conditions: Accession Q7L8L6
T2 sequence (Q7L8L6 28-764): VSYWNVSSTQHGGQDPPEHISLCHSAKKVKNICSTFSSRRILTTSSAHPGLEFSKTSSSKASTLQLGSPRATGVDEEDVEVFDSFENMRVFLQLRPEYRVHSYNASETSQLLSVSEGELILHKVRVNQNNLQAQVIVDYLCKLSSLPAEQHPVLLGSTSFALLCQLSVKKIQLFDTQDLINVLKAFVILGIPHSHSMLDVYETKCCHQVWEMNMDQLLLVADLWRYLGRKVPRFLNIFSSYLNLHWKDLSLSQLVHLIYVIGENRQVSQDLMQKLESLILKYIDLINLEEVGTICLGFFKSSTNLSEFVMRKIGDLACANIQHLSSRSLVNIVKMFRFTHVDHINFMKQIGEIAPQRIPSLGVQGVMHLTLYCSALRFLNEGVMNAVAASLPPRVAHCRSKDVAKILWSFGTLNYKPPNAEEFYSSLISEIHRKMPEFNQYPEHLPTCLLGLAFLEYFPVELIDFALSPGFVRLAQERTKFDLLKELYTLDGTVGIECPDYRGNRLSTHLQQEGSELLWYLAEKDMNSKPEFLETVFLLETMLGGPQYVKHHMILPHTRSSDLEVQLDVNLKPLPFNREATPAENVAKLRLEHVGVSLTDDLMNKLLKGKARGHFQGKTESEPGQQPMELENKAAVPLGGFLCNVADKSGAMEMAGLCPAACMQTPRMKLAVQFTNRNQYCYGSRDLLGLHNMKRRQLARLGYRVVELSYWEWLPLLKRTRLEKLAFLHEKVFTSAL

[3] = target: T3, extended human kinome (kinase-like proteins) (Homo sapiens, UniProt Q53R41); assay: as above
T3 sequence (Q53R41 1-847): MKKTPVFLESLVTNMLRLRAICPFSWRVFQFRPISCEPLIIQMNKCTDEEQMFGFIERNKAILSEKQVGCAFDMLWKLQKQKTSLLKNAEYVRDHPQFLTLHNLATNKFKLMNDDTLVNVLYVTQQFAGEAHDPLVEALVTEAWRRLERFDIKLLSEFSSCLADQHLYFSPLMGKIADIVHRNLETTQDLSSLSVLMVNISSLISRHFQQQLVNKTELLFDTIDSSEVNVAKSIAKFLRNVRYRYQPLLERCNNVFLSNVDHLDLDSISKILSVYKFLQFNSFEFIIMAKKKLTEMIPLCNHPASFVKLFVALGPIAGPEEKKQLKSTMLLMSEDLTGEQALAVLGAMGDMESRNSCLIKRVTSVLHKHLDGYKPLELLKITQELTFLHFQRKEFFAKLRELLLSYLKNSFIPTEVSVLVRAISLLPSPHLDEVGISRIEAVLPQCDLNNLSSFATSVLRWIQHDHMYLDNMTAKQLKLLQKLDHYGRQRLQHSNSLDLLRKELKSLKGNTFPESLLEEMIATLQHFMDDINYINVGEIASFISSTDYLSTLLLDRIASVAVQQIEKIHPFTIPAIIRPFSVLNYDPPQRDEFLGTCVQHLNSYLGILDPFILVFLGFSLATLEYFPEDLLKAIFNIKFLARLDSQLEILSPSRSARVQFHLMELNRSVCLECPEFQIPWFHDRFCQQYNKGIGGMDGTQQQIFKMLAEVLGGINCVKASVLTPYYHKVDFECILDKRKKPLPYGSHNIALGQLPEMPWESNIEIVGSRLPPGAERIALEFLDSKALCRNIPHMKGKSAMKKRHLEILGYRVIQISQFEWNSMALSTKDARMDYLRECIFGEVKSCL

[4] = target: extended human kinome (kinase-like proteins) (Homo sapiens, UniProt Q9UIJ7); assay: as above
Sequence of extended human kinome (kinase-like proteins) (Homo sapiens, UniProt Q9UIJ7) (Q9UIJ7 whole entry): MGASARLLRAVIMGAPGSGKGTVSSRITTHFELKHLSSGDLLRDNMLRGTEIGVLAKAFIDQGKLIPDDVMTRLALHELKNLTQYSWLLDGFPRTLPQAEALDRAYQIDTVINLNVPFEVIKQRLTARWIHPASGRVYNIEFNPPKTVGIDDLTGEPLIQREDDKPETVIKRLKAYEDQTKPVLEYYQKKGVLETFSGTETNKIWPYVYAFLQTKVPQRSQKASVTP

[5] = target: extended human kinome (kinase-like proteins) (Homo sapiens, UniProt P27144); assay: as above
Sequence of extended human kinome (kinase-like proteins) (Homo sapiens, UniProt P27144) (P27144 whole entry): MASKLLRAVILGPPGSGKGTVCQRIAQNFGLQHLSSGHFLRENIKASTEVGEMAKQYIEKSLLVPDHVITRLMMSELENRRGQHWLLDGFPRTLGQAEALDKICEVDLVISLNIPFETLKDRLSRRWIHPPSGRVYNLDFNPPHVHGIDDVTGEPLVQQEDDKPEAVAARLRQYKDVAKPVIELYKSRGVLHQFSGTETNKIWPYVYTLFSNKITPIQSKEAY

[6] = target: extended human kinome (kinase-like proteins) (Homo sapiens, UniProt Q16875); assay: as above; conditions: Accession Q16875, experiment wp133
Sequence of extended human kinome (kinase-like proteins) (Homo sapiens, UniProt Q16875) (Q16875 whole entry): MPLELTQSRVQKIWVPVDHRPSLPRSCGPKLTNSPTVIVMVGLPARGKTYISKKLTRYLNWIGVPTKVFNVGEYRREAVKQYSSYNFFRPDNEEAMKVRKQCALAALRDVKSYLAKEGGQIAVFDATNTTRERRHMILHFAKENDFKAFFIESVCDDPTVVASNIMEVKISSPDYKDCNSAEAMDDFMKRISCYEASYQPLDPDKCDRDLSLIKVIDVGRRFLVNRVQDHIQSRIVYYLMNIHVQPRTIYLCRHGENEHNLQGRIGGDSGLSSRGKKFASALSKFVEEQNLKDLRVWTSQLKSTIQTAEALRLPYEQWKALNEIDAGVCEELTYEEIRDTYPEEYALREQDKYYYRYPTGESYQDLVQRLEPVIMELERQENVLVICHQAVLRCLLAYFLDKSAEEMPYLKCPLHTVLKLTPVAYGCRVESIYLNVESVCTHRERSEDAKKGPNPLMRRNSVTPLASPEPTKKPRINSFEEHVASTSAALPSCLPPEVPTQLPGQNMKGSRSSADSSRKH

SMILES: CC(C)(C)c1nc(-c2cccc(NS(=O)(=O)c3c(F)cccc3F)c2F)c(-c2ccnc(NCCOCCNC(=O)CCOCCOCCNc3cccc4c3C(=O)N(C3CCC(=O)NC3=O)C4=O)n2)s1 (centres unmarked) [DD.03.106]
- logFC NADK2 ([1]; experiment wp147, 4 uM): −0.6976
- logFC FASTKD5 ([2]; experiment wp147, 4 uM): −0.8688
- logFC FASTKD1 (Q53R41) ([3]; experiment wp147, 4 uM): −0.6262
- logFC AK3 (Q9UIJ7-1) ([4]; experiment wp147, 4 uM): −0.7202
- logFC AK4 (P27144) ([5]; experiment wp147, 4 uM): −0.5652

SMILES: CC(=O)c1c(C)c2cnc(Nc3ccc(N4CCN(CCOCCOCCOCCNC(=O)COc5cccc6c5C(=O)N(C5CCC(=O)NC5=O)C6=O)CC4)cn3)nc2n(C2CCCC2)c1=O (centres unmarked) [BSJ.03.123]
- logFC NADK2 ([1]; experiment wp084): −0.4839
- logFC FASTKD5 ([2]; experiment wp084): −0.5926
- logFC FASTKD1 (Q53R41) ([3]; experiment wp084): −0.5242
- logFC AK3 (Q9UIJ7-1) ([4]; experiment wp084): −0.4577
- logFC AK4 (P27144) ([5]; experiment wp084): −0.5103

SMILES: CC(C)(C)c1nc(-c2cccc(NS(=O)(=O)c3c(F)cccc3F)c2F)c(-c2ccnc(NCCOCCNC(=O)CCOCCOCCNc3cccc4c3CN(C3CCC(=O)NC3=O)C4=O)n2)s1 (centres unmarked) [DD.03.107]
- logFC NADK2 ([1]; experiment wp147, 1 uM): −0.5404
- logFC NADK2 ([1]; experiment wp147, 2 uM): −0.4442
- logFC NADK2 ([1]; experiment wp147, 4 uM): −0.9504
- logFC FASTKD5 ([2]; experiment wp147, 1 uM): −0.5985
- logFC FASTKD5 ([2]; experiment wp147, 2 uM): −0.6839
- logFC FASTKD5 ([2]; experiment wp147, 4 uM): −1.268
- logFC FASTKD1 (Q53R41) ([3]; experiment wp147, 1 uM): −0.58
- logFC FASTKD1 (Q53R41) ([3]; experiment wp147, 2 uM): −0.5044
- logFC FASTKD1 (Q53R41) ([3]; experiment wp147, 4 uM): −0.9447
- logFC AK3 (Q9UIJ7-1) ([4]; experiment wp147, 1 uM): −0.5265
- logFC AK3 (Q9UIJ7-1) ([4]; experiment wp147, 2 uM): −0.5607
- logFC AK3 (Q9UIJ7-1) ([4]; experiment wp147, 4 uM): −1.001
- logFC AK4 (P27144) ([5]; experiment wp137): −0.3942
- logFC AK4 (P27144) ([5]; experiment wp147, 1 uM): −0.3992
- logFC AK4 (P27144) ([5]; experiment wp147, 2 uM): −0.4045
- logFC AK4 (P27144) ([5]; experiment wp147, 4 uM): −0.898

SMILES: CC(C)S(=O)(=O)c1ccccc1Nc1nc(Nc2ccc(N3CCN(CCOCCNC(=O)CNc4cccc5c4C(=O)N(C4CCC(=O)NC4=O)C5=O)CC3)cc2)ncc1Cl (centres unmarked) [SK.3.91]
- logFC NADK2 ([1]; experiment wp160, 1 hr): −0.698
- logFC FASTKD5 ([2]; experiment wp160, 1 hr): −0.8306
- logFC FASTKD1 (Q53R41) ([3]; experiment wp160, 1 hr): −0.8675
- logFC PFKFB3 ([6]; 2 hr): −0.3539
- logFC PFKFB3 ([6]; 4 hr): −0.6035
- logFC AK3 (Q9UIJ7-1) ([4]; experiment wp160, 1 hr): −0.7434
- logFC AK4 (P27144) ([5]; experiment wp160, 1 hr): −0.8232

SMILES: O=C(COc1cccc2c1C(=O)N(C1CCC(=O)NC1=O)C2=O)NCCCCCCCC(=O)NC1(c2ccc(-c3nc4ccn5c(=O)[nH]nc5c4cc3-c3ccccc3)cc2)CCC1 (centres unmarked) [INY.01.140.1]
- logFC NADK2 ([1]; experiment wp081): −0.3886
- logFC FASTKD5 ([2]; experiment wp081): −0.4182
- logFC FASTKD1 (Q53R41) ([3]; experiment wp081): −0.4808
- logFC AK3 (Q9UIJ7-1) ([4]; experiment wp081): −0.4102
- logFC AK4 (P27144) ([5]; experiment wp081): −0.4309
